# According to patent US20090203685A1, “ANTI-PROLIFERATIVE COMPOUNDS FROM A 3-ARYL-COUMARINE OR 3-ARYL-QUINOLIN-2-ONE AND USES THEREOF” (EOS (ETHICAL ONCOLOGY SCIENCE) S.P.A., priority 2006, published 2009):
# What was measured:
# [1] = Viability (propidium iodide staining), NCI-H460; format: cell-based; details: human, NCI-H460 cells (lung), NCI-H460 lung (NSCLC), 500 nM
# Procedure: (§1) Propidium iodide (PI) cannot normally cross the cell membrane; it is thus excluded by viable cells but not from dying or dead cells, having a damaged membrane, where it intercalates into double-stranded nucleic acids and fluoresces when excited at 488 nm.
# (§2) The cells are pelleted by gentle centrifugation 1200 rpm/5 min/4° C., then the supernatant is discarded and replaced by 1 mL of fresh medium. One hundred microliters of propidium iodide (40 μg/mL) are added to 400 μL of the cell suspension in a FACS tube and viability is measured by flow cytometry as the percentage of cells whose fluorescence recorded on FL-3 channel is comprised between 0 and 2.
# (§3) Viability and cell cycle profile, tested with compound (01), at 500 nM: […]
# [2] = Viability (propidium iodide staining), CEM; format: cell-based; details: human, CEM cells (lymphoid), 500 nM
# Procedure: as §1, §2, §3
# NCI-H460 = assay: Cell cycle analysis, NCI-H460; format: cell-based, human; details: 500 nM
# Procedure: (§4) The cells are pelleted by gentle centrifugation 1200 rpm/5 min/4° C., then the supernatant is discarded and the cells are fixed with 1 mL of PBS/Ethanol 70% overnight at −20° C. The tubes are then centrifuged during 5 minutes at 1200 rpm and the supernatant is removed. The pellet is then re-suspended in 450 μL of PBS before 50 μL of RNAse (1 mg/mL) and 5 μL of propidium iodide (2 mg/mL) are added. Each tube is left 30 minutes at 37° C. and immediately analysed by flow cytometry after incubation.
# (§5) A biparametric dot plot representation FL3 peak vs FL3 integer is plotted and the cells located on the diagonal are gated and analysed on a histogram representing the number of cells as a function of the FL3 peak.
# (§6) To assess the relative position of cursors defining relative proportion of cells in subG1, G1, S or G2 phase of the cell cycle, G1 and G2 peaks are to be defined first:
# (§7) The G1 peak is defined as the major peak in absence of treatment (generally X=200);
# (§8) The G2 peak is centered on the value which is twice the value of the G1 peak (generally X=400).
# (§9) Cells in subG1 phase are plotted in the part of the histogram preceding the G1 peak (generally X<200) and cells in S phase are enclosed in the area between the G1 and G2 peaks.
# (§10) On this graphic, subG1, G1, S and G2/M phases of the cell cycle can thus be defined.
# as §3
# A375 = assay: Cell cycle analysis, A375; format: cell-based; details: 500 nM
# Procedure: as §4, §5, §6, §7, §8, §9, §10, §3
# Jurkat = assay: Cell cycle analysis, Jurkat; format: cell-based; details: 500 nM
# Procedure: as §4, §5, §6, §7, §8, §9, §10, §3
# [3] = test system: human lung cancer NCI-H460 cells (NSCLC); assay: Inhibition of tumor growth in vivo, NCI-H460 xenograft; design: species or system Swiss nude mice
# Procedure: FIG. 2: Inhibition of tumor growth in vivo.
# This graph represents the growth of tumor size (by reference to the initial size of the tumor) grafted to mice receiving different treatments during 15 days.
# Rhombus: evolution of the growth of the tumor measured in mice receiving the vehicle (without active ingredient) intra-peritoneally (2QD)
# Triangle: evolution of the growth of the tumor measured in mice receiving the compound (01) intra-peritoneally at a dosage of 18 mg/kg (2QD).
# Circle: evolution of the growth of the tumor measured in mice receiving taxol intra-peritoneally at 8 mg/kg (Q3D×5; d1; d4; d7; d10; d13).
# Cross: evolution of the growth of the tumor measured in mice receiving a combination of compound (01) at a dosage of 18 mg/kg 2QD and taxol at a dosage of 8 mg/kg Q3D×5 intra-peritoneally.
# For this experiment, Swiss nude mice received a subcutaneous xenograft of 5×10^6 human lung cancer NCI-H460 cells (NSCLC). The percentage of growth of the tumor size versus tumor size at the beginning of treatment is plotted during 15 days for mice receiving four different treatments (12 mice per group of treatment).
# The first treatment corresponds to a control. The mice were given the vehicule intra-peritoneally, 2QD.
# Composition of the vehicule: 10% DMSO; 10% PEG-400; 30% (EtOH/Cremophor (1/2)); 50% sterile water.
# The second treatment corresponds to the administration of a compound of the invention, compound (01), at a dosage of 18 mg/kg 2QD.
# The third treatment corresponds to the administration of Taxol at a dosage of 8 mg/kg Q3D×5; d1; d4; d7; d10; d13.
# The fourth treatment corresponds to the administration of a combination of compound (01) at a dosage of 18 mg/kg 2QD and of Taxol at a dosage of 8 mg/kg Q3D×5.
smiles,measurement,setting,value
"COc1cc(NC(=S)NC(=O)/C=C/c2ccco2)ccc1-c1cc2ccccc2oc1=O [Compound 01, (2E)-3-(2-furyl)-N-({[3-methoxy-4-(2-oxo-2H-chromen-3-yl)phenyl]amino}carbonothioyl)acrylamide]","viability at 48 h, 0.5 µM",[1]; 48 h,80%
same,"viability at 72 h, 0.5 µM",[1]; 72 h,80%
same,"viability at 48 h, 0.5 µM",[2]; 48 h,10%
same,"viability at 72 h, 0.5 µM",[2]; 72 h,2%
same,Cell cycle profile - 72 h,NCI-H460; G2/M phase fraction,G2/M accumulation
same,Cell cycle profile - 72 h,NCI-H460; sub-G1 fraction,Strong sub-G1
same,Cell cycle profile - 72 h,A375; G2/M phase fraction,G2/M accumulation
same,Cell cycle profile - 72 h,A375; sub-G1 fraction,Strong sub-G1
same,Cell cycle profile - 72 h,Jurkat,Strong sub-G1
same,Growth of lung tumor xenograft,"[3]; 18 mg/kg 2QD intra-peritoneally, 15 days",inhibits the growth
same,Dose dependence of the tumor growth inhibition,[3]; NCI-H460 xenograft,dose-dependent
same,Efficacy in reducing the tumour growth when combined with taxol,"[3]; compound (01) 18 mg/kg 2QD plus taxol 8 mg/kg Q3D×5, intra-peritoneally",enhanced
